Measurements published in patent publication US12595231B2 (priority 2022, dated 2026).

How the values were obtained:
[1] = male C57Bl/6J mice, 10 mg/kg i.p.
[2] = solubility screen of amorphous besylate salt; assay type: physicochemical
Experimental: The amorphous besylate salt prepared in Example 8 was used in a solubility screen as follows:
Known volume aliquots of solvent system were added to each vial, with heating at 40° C. between each addition for ca. 5 minutes. Addition of solvents was continued until either dissolution was observed, or until 100 volumes (ca. 1 mL) had been added.
After the solvent addition was complete, the experiments were stirred at 40° C. for ca. 16 h. […] The solids were isolated by centrifuge filtration and were analysed by XRPD.
Any solids isolated were analysed by XRPD.

[3] = blood:plasma and blood:brain ratios in satellite animals; assay type: in vivo, male C57Bl/6J mice; settings: satellite mice, 10 mg/kg i.p., t=0.25 h
Experimental: Groups of 18 male C57Bl/6J mice (weighing between 20 and 30 g) received a single administration of test compound (10 mg/kg; i.p.) in methylcellulose (0.5% w/v) at a nominal concentration of […].

Question: With COc1ccc(C23CCC(=O)CC2N(C)CC3)cc1OC.O=S(=O)(O)c1ccccc1 (stereo not shown) [amorphous besylate salt, mesembrine besylate] as the molecule, how does the “AUC greater than that produced by the mesembrine free base” value [1] read?
Answer: over 100 ng·hr/mL

Question: What about the “difference in half-life versus the free base” value [1] of the same molecule?
Answer: ~10 min

Question: And the AUC0-inf ([1]; plasma)?
Answer: 392 ng·h/mL

Question: And the Cmax ([1]; plasma)?
Answer: 451 ng/mL

Question: What about the Tmax ([1]; plasma) of the same molecule?
Answer: 15 min

Question: What about the half-life ([1]; plasma) of the same molecule?
Answer: 36.9 min

Question: What about the Solubility ([2]; 1,4-Dioxane) of the same molecule?
Answer: <10 mg/mL

Question: What about the Solubility ([2]; 1-Butanol) of the same molecule?
Answer: <10 mg/mL

Question: And the Solubility ([2]; 1-Propanol)?
Answer: ca.31 mg/mL

Question: What about the Solubility ([2]; 2-Ethoxyethanol) of the same molecule?
Answer: ca.44 mg/mL

Question: And the Solubility ([2]; 2-Methyl THF)?
Answer: <10 mg/mL

Question: And the Solubility ([2]; 2-Propanol)?
Answer: <10 mg/mL

Question: And the Solubility ([2]; 2-Propanol:Water (50:50))?
Answer: >500 mg/mL

Question: And the Solubility ([2]; 2-Propanol:Water (75:25))?
Answer: ca.167 mg/mL

Question: What about the Solubility ([2]; Acetone) of the same molecule?
Answer: <10 mg/mL

Question: What about the Solubility ([2]; Acetone:Water (90:10)) of the same molecule?
Answer: >500 mg/mL

Question: What about the Solubility ([2]; Acetonitrile) of the same molecule?
Answer: >500 mg/mL

Question: And the Solubility ([2]; Anisole)?
Answer: <10 mg/mL

Question: And the Solubility ([2]; Butyl Acetate)?
Answer: <10 mg/mL

Question: What about the Solubility ([2]; Dichloromethane (DCM)) of the same molecule?
Answer: ca.250 mg/mL

Question: And the Solubility ([2]; Diisopropyl ether)?
Answer: <10 mg/mL

Question: What about the Solubility ([2]; Dimethylsulfoxide (DMSO)) of the same molecule?
Answer: >500 mg/mL

Question: What about the Solubility ([2]; Ethanol) of the same molecule?
Answer: ca.44 mg/mL

Question: And the Solubility ([2]; Ethanol:Water (50:50))?
Answer: >500 mg/mL

Question: What about the Solubility ([2]; Ethanol:Water (90:10)) of the same molecule?
Answer: >500 mg/mL

Question: And the Solubility ([2]; Ethyl acetate)?
Answer: <10 mg/mL

Question: And the Solubility ([2]; Heptane)?
Answer: <10 mg/mL

Question: And the Solubility ([2]; Isopropyl acetate)?
Answer: <10 mg/mL

Question: And the Solubility ([2]; Methanol)?
Answer: >500 mg/mL

Question: What about the Solubility ([2]; Methylethyl Ketone (MEK)) of the same molecule?
Answer: <10 mg/mL

Question: And the Solubility ([2]; Methylisobutyl Ketone (MiBK))?
Answer: <10 mg/mL

Question: And the Solubility ([2]; N,N-Dimethylacetamide (DMA))?
Answer: >500 mg/mL

Question: And the Solubility ([2]; N,N-Dimethylformamide (DMF))?
Answer: ca.250 mg/mL

Question: And the Solubility ([2]; N-Methylpyrrolidone (NMP))?
Answer: >500 mg/mL

Question: And the Solubility ([2]; Tetrahydrofuran (THF))?
Answer: <10 mg/mL

Question: And the Solubility ([2]; Toluene)?
Answer: <10 mg/mL

Question: What about the Solubility ([2]; Water) of the same molecule?
Answer: >500 mg/mL

Question: And the Solubility ([2]; tert-Butylmethyl Ether (tBME))?
Answer: <10 mg/mL

Question: And the Brain concentration [3]?
Answer: 814 ng/g

Question: What about the Plasma concentration [3] of the same molecule?
Answer: 417 ng/mL
